Here are results for eleven compounds from ChEMBL document CHEMBL1201862, “PubChem BioAssay data set” (2004).

One assay deals with H4. Briefly: Luminescence Cell-Based Dose Response HTS to Identify Activators of 5'UTR Stem-Loop Driven Prion Protein mRNA Translation in H4 Neuroglioblastoma Cells. [Related pubchem assays: 1829 (Project Summary), 1814 (Primary HTS)]. To be noted: Homo sapiens. Type of assay: functional.
A short description of assay [1]: Luminescence Cell-Based Dose Confirmation HTS to Identify Activators of 5'UTR Stem-Loop Driven Alpha-Synuclein mRNA Translation in H4 Neuroglioblastoma Cells. [Related pubchem assays: 1829 (Project Summary), 1814 (Primary HTS)]. The assay is classed as functional.
A short description of assay [2]: Luminescence Cell-Based Dose Response HTS to Identify Activators of Luciferase Translation or Activity in H4 […] Cells. [Related pubchem assays: 1829 (Project Summary), 1814 (Primary HTS)]. Type of assay: functional.
Assay [3] deals with T1, Zinc finger protein mex-5 (Caenorhabditis elegans, UniProt Q9XUB2).
T1 sequence (Q9XUB2 whole entry): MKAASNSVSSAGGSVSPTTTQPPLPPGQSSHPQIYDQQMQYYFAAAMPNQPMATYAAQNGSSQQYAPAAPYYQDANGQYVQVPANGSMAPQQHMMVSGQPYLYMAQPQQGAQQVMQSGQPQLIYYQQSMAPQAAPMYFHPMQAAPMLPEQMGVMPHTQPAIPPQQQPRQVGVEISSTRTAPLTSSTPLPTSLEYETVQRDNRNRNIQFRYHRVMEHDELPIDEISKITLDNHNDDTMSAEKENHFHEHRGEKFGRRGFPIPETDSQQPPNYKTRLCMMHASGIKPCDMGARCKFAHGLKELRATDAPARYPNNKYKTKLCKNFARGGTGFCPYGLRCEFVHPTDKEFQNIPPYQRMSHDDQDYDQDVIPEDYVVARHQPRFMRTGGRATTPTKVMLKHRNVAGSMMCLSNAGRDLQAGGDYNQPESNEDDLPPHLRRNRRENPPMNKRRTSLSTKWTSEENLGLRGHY
The assay can be described thus: potency of MEX-5 RNA-binding blockers – biochemical, C. elegans, fluorescence polarization, dose response (AID 1960). For orientation: Fluorescence polarisation rises when a labelled molecule tumbles more slowly, as on binding a larger partner.

The target of a further assay is Troponin, cardiac muscle (Homo sapiens, UniProt P19429+P45379+P63316). The assay can be described thus: Fluorescence-based biochemical high throughput dose response assay for activators of the calcium sensitivity of cardiac Regulated Thin Filaments (RTF). [Related pubchem assays (depositor defined):AID493008, AID493018, AID504382, AID504383]. Type of assay: protein-complex assay.

Assay [4] has as its target T2, RNA-binding protein pos-1 (Caenorhabditis elegans, UniProt G5EF15).
T2 sequence (G5EF15 whole entry): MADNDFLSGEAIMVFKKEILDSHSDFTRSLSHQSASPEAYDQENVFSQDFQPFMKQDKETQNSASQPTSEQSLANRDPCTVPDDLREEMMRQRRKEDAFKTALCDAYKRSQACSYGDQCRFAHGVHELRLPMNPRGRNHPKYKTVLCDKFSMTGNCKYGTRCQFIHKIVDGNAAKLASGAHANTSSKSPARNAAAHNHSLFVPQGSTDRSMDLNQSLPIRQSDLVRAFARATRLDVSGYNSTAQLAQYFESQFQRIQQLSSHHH
The assay can be described thus: disruptors of C. elegans POS-1 RNA interaction – biochemical, fluorescence polarization, dose response (AID 1964).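 Note: purified POS-1 fused to maltose binding protein made in E. coli; potency of compounds blocking POS-1 binding to fluorescent RNA.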

In a further assay the target is Beta-galactosidase (Escherichia coli, UniProt Q8VNN2). Briefly: detection-enzyme interference by beta-gal modulators – biochemical, E. coli enzyme, set 3, artefact control for CCR6 antagonist project, dose response (AID 504712). The assay is classed as functional.
The next assay deals with H9c2. Briefly: cells. The assay is classed as functional, cell-based. As to conditions: Rattus norvegicus, H9c2, Myocardium.
Assay [5] addresses T3, Microphthalmia-associated transcription factor (Homo sapiens, UniProt O75030).
T3 sequence (O75030 whole entry): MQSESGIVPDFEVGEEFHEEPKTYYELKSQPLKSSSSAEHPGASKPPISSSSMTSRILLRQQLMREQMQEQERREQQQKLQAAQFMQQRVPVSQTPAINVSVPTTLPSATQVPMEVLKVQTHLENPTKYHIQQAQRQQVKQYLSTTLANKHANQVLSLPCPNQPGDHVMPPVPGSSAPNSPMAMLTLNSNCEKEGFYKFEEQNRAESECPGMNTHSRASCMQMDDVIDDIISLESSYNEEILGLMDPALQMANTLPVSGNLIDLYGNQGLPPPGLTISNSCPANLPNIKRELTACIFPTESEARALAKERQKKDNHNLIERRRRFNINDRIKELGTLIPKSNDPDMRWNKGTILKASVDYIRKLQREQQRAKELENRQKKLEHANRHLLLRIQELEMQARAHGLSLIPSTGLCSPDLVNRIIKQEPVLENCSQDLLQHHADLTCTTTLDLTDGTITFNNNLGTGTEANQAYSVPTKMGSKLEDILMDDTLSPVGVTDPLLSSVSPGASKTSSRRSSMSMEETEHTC
The assay can be described thus: reducers of TRPM1 reporter luminescence, concentration series – cell-based, SK-MEL-5, cherry-picked, set 3, MITF inhibitor project, dose response (AID 493073).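 Note: SK-MEL-5 melanoma cells with luciferase driven by the MITF target TRPM1 promoter.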 Type of assay: functional.

Assay [6] can be described thus: bead-based luminescence quenchers, dual-tagged ARNT – biochemical, AlphaScreen, cherry-pick, artefact control for ARNT-TACC3 interaction inhibitor project, dose response (AID 651705).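 Note: AlphaScreen bead proximity signal that flags compounds interfering with the detection technology; potency reflects signal decrease which marks the compound as an assay artifact.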 Type of assay: functional. (In Alpha technology, singlet oxygen from a donor bead excites a nearby acceptor bead.)
Assay [7] has as its target T4, Voltage-gated N-type calcium channel alpha-1B subunit/Amyloid beta A4 precursor protein-binding family A member 1 (Homo sapiens, UniProt Q00975+Q02410). Type of assay: protein assay.
In assay [8] the target is T4, Voltage-gated N-type calcium channel alpha-1B subunit/Amyloid beta A4 precursor protein-binding family A member 1. The assay is classed as protein assay. This is another data set of the same source.
For a further assay, the target named is T5, Hexokinase-1 (Homo sapiens, UniProt P19367).
T5 sequence (P19367 whole entry): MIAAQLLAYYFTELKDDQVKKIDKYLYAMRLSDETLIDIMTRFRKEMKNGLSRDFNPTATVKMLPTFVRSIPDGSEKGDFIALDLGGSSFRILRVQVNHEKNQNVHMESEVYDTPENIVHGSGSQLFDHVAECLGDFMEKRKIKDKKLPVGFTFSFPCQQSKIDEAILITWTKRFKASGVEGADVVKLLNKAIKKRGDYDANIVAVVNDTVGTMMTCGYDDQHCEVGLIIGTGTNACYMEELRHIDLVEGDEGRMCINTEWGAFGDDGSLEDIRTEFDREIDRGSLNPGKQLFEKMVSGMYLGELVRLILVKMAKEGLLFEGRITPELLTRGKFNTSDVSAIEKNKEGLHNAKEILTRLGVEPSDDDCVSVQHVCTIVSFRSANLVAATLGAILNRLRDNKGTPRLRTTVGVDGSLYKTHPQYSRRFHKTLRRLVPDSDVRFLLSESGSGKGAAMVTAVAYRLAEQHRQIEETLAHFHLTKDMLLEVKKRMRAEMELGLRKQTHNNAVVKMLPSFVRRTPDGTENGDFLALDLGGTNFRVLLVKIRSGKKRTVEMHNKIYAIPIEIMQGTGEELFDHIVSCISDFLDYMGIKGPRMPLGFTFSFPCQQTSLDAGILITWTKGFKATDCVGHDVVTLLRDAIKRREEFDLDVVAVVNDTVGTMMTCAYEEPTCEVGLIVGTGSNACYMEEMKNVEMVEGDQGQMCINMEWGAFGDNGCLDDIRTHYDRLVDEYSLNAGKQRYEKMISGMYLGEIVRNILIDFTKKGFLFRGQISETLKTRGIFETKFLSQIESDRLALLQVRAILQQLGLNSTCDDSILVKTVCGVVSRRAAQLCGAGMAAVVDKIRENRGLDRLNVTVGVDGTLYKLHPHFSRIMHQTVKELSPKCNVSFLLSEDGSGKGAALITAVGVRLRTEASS
The assay can be described thus: HK1 enzyme activation by HKDC1 hits – biochemical, selectivity assay for HKDC1 activator project, dose response (AID 504762). The assay is classed as functional.

A further assay has as its target T6, Hexokinase HKDC1 (Homo sapiens, UniProt Q2TB90).
T6 sequence (Q2TB90 whole entry): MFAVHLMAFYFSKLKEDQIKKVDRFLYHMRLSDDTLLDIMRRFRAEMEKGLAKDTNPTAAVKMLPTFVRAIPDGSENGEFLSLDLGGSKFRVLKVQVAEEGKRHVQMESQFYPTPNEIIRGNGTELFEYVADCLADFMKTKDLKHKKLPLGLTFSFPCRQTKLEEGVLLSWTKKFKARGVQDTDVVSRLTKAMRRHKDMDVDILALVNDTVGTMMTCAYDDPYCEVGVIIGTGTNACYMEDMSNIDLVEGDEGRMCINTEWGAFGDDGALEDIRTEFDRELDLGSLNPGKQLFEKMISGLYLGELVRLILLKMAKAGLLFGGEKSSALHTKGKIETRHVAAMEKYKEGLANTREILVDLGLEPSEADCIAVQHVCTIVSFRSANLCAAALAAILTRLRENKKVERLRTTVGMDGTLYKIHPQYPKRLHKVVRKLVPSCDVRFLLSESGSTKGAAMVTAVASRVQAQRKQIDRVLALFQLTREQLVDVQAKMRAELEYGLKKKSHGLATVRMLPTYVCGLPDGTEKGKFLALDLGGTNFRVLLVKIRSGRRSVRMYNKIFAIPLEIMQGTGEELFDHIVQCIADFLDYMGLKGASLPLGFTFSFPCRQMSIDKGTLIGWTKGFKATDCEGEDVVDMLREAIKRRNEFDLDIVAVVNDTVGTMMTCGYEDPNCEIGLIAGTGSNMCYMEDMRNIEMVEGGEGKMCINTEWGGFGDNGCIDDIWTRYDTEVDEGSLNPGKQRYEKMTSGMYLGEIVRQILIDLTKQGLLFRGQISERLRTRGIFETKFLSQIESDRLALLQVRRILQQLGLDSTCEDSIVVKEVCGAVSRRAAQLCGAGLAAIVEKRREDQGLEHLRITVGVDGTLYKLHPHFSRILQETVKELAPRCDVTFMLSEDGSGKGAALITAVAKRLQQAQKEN
The assay can be described thus: activation of HKDC1 glucose phosphorylation – biochemical, W721R variant, dose response (AID 504730). The assay is classed as functional.

In assay [9] the target is T7, Carboxy-terminal domain RNA polymerase II polypeptide A small phosphatase 1 (Homo sapiens, UniProt Q9GZU7).
T7 sequence (Q9GZU7 whole entry): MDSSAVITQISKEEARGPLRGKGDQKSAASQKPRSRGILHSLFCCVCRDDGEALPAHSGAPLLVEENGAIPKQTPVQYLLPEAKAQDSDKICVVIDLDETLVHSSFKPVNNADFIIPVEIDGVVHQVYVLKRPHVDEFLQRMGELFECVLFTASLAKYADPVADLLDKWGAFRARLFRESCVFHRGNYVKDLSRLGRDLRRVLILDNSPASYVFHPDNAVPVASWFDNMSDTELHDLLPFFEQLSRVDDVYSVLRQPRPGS
The assay can be described thus: CTDSP1 inhibitors, concentration-response, biochemical, absorbance readout, ultra-high-throughput screen actives (AID 540297). The assay is classed as functional.

The target in the next assay is Nonstructural protein 1 (Influenza A virus, UniProt Q194T2). Type of assay: functional, Influenza A virus (A/California/07/2009(H1N1)).

Molecules are shown by their SMILES. Activity calls are given as the source filed them.

As usually defined, the EC50 is the concentration giving half of the maximal effect. In general, IC50 refers to the concentration at which inhibition is half-maximal. In general, AC50 refers to the concentration giving half of the maximal activity seen.

T4 sequence (Q00975 whole entry): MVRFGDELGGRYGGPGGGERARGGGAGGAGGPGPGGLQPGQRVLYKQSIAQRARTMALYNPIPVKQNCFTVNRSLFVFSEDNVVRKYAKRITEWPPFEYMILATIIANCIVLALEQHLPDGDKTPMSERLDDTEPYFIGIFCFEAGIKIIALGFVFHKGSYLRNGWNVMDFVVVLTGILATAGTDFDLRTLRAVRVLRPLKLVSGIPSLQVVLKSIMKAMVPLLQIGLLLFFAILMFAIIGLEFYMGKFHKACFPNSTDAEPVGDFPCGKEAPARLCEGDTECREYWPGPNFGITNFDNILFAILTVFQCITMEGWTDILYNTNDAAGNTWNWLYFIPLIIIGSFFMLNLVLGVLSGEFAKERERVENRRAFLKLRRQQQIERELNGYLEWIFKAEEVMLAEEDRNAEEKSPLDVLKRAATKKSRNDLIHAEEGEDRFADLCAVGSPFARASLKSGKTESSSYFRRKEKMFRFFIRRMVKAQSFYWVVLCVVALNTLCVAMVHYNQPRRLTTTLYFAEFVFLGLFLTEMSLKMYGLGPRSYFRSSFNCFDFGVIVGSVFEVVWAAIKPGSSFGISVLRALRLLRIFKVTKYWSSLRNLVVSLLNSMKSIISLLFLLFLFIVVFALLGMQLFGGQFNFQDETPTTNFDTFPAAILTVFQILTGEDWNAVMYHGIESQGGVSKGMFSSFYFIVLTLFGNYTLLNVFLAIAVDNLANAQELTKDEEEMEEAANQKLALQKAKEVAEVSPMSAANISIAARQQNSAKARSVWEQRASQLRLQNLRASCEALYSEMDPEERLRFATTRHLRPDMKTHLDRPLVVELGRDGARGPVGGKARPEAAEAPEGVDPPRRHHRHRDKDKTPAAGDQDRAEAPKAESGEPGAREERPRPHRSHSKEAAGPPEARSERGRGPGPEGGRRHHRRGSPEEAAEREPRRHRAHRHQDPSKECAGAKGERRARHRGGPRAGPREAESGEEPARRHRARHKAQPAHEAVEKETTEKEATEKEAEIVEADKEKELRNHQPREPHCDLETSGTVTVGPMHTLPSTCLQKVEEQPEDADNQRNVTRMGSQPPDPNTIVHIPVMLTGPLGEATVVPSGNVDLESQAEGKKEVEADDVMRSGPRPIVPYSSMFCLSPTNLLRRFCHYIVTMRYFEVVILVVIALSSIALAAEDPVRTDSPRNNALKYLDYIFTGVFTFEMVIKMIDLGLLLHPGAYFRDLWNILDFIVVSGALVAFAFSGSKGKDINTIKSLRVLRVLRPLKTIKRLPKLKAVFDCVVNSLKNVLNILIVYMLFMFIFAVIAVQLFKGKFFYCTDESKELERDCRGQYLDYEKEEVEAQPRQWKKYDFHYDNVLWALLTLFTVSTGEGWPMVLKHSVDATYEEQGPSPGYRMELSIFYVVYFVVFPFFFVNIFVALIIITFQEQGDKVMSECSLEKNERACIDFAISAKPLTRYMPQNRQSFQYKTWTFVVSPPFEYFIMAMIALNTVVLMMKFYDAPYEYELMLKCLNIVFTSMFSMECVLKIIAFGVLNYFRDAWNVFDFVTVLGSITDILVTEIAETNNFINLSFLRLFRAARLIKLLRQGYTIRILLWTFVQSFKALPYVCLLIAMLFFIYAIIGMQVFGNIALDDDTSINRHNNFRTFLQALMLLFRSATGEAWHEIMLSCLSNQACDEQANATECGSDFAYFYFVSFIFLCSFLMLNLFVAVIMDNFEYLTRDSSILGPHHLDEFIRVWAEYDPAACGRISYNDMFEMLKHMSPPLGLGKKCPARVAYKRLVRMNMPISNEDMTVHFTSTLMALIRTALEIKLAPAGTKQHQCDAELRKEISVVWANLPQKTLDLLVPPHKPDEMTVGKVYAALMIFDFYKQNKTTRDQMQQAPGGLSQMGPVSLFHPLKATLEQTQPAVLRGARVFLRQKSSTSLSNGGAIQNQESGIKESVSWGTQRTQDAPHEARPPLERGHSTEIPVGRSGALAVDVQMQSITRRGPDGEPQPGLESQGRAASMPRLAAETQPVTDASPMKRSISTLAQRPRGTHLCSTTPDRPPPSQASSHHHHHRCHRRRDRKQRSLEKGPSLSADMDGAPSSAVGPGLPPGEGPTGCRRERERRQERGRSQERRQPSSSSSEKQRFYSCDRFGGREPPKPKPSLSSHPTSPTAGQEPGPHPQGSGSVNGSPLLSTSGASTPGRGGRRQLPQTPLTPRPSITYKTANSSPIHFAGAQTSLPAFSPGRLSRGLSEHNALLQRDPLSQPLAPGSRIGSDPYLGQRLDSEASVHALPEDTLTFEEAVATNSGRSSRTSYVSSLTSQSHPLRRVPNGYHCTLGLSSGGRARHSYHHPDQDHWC
T4 sequence (Q02410 whole entry): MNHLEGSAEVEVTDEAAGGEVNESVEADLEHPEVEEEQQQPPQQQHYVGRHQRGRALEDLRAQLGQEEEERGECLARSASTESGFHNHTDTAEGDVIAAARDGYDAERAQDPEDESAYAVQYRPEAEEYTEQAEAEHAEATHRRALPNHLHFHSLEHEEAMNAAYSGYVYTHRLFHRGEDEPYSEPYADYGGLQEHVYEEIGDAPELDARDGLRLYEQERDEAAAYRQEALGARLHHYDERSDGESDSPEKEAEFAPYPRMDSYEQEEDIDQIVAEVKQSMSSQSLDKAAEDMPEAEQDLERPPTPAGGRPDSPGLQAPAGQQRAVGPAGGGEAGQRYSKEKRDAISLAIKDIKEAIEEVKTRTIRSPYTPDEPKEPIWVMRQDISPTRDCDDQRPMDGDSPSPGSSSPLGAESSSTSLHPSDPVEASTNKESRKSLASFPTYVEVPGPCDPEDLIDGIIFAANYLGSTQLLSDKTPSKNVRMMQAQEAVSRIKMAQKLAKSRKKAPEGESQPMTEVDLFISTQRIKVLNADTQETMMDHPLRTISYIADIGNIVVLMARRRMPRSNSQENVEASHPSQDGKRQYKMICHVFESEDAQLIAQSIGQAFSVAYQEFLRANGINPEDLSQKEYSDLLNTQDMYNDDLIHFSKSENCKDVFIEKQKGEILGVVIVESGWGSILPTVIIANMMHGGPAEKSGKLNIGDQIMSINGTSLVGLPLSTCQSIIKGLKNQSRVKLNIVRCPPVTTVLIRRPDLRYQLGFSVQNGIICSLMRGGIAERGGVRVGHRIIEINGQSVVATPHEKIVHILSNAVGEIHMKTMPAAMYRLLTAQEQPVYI
Beta-galactosidase, sequence (Q8VNN2 whole entry): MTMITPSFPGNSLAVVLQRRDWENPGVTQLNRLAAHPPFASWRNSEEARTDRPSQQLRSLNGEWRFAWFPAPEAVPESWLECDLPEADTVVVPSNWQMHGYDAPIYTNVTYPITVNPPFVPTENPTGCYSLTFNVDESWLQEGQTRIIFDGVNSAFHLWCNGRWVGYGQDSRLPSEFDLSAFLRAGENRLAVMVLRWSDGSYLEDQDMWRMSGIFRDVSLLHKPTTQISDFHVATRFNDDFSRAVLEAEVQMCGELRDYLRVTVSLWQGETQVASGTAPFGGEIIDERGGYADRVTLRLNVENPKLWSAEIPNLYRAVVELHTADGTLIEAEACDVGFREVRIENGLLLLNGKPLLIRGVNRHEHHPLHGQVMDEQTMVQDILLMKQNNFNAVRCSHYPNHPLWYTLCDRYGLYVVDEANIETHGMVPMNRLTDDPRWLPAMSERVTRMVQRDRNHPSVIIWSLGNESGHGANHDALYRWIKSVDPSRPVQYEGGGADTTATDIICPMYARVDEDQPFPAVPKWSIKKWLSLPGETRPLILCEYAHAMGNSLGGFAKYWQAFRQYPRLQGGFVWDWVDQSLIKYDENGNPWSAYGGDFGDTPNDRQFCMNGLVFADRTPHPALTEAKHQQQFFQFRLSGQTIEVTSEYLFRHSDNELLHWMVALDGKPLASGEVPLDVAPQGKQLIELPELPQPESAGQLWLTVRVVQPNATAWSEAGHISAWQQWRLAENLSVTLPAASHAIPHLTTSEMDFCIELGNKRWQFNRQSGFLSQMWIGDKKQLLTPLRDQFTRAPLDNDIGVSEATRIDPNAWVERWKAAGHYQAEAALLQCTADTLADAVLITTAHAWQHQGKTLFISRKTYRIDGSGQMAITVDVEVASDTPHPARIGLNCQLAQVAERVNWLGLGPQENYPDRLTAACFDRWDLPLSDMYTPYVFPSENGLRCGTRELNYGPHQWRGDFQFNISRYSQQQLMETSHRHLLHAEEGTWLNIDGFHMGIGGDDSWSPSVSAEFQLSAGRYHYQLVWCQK
Nonstructural protein 1, sequence (Q194T2 whole entry): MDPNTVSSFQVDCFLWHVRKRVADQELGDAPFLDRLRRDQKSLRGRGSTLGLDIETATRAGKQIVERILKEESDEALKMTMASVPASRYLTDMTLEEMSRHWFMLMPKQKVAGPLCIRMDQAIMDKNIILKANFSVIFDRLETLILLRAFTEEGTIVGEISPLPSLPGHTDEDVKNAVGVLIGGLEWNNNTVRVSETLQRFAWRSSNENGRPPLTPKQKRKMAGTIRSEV

For `Cc1cc(/C=C2\SC(=S)N(Cc3ccco3)C2=O)c(C)n1-c1cccnc1`, the EC50 in the assay with H4 is 3.71 µM (active); in assay [1], 45.2 µM (active); in assay [2], 119 µM (active); in assay [3], 20.2 µM (inconclusive); on Troponin, cardiac muscle it was > 2.65 µM (active); in [4] it was 11.3 µM (inconclusive).

Turning to `CC(Oc1ccccc1)C(=O)Nc1nc(-c2ccccn2)cs1` (stereo not drawn), the IC50 on Beta-galactosidase is > 66.6 µM (inactive); with H9c2, > 79 µM (inactive). Moreover, the AC50 in assay [5] was 14 µM (active); in assay [6], 84.7 µM (active).

On to `COc1ccccc1NS(=O)(=O)c1cc(NC(=O)c2ccncc2)ccc1N1CCCC1`, for which the concentration for half-maximal inhibition (IC50) in assay [7] was 29 µM (active); in assay [8], > 50 µM (inactive).

`COc1ccc2nc(C)c3cc(C)oc3c2c1`: the EC50 on Troponin, cardiac muscle was > 71.4 µM (inactive).

On to `N#CC1=C2SCN(c3ccc(F)cc3)CN2C(=O)CC1c1cccc(F)c1` (stereo not drawn), for which the IC50 was 1.59 µM (active) in [7] and > 50 µM (inactive) in assay [8].

In the case of `C=COc1ccc(N2C(=O)c3ccccc3OC2C)cc1` (stereo not drawn), the EC50 at Troponin, cardiac muscle was > 71.4 µM (inactive).

On to `COC(=O)c1c(NC(C)=O)sc(Cc2ccccc2)c1C`, for which the values for the EC50 on Hexokinase-1 and at Hexokinase HKDC1 were 39.4 µM (inactive) and 23.9 µM (inactive), respectively.

On to `Cc1ccc(C2=NN=C(Nc3ccc(F)cc3)SC2)cc1`, for which the results for the EC50 at Hexokinase-1 and at Hexokinase HKDC1 were 17.8 µM (active) and 10 µM (active), respectively.

`C[N+](C)(CCCCCC[N+](C)(C)CCCN1C(=O)c2cccc3cccc(c23)C1=O)CCCN1C(=O)c2cccc3cccc(c23)C1=O`: the EC50 at Hexokinase-1 was 17.9 µM (active); at Hexokinase HKDC1, 20.4 µM (inactive).

`CC(/C=C/c1ccco1)=N\NC(=O)c1cccnc1`: the IC50 in [7] is 9.19 µM (active); in assay [9], 21.3 µM (active); in assay [8], 17.8 µM (active).

For the compound `C/C(=N\NC(=O)C1CCCN(S(=O)(=O)c2ccccc2)C1)c1ccccn1` (stereo not drawn), the IC50 at Nonstructural protein 1 is 22.2 µM (active); on Beta-galactosidase, > 66.6 µM (inactive). Also, in assay [6], the AC50 was 77.8 µM (active).
